# Patent US20230227427A1, “IL-17A MODULATORS” (SANOFI, priority 2010, published 2023)
# Target: T1, human recombinant IL-17A (Homo sapiens, UniProt Q16552)
# T1 construct: purchased R&D Systems 7955-IL/CF
# T1 sequence (Q16552 24-155): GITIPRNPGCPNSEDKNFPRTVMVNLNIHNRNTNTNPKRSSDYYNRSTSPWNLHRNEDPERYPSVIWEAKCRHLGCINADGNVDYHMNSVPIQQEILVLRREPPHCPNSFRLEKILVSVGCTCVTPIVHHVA
# Test: IL-17A AlphaLISA assay (block binding of IL-17A to its receptor IL-17RA)
# Conditions: compounds pre-incubated with the IL-17A for 30 min (indicated by * in Table A); read-out: AlphaLISA pIC50 (converted)
# Outline: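 PBS with 0.05% Tween-20 and 0.1% BSA. IL-17A stock 7.5 nM, IL-17RA/Fc stock 5 nM; compound–cytokine pre-incubation 24 h at RT, or 30 min where marked, then 90 min with receptor. pIC50 from 4-parameter logistic AlphaLISA signal, normalised to DMSO and 6 μM reference inhibitor.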
row,SMILES,IC50 [nM]
1,"Cc1n[nH]c(C)c1-c1ccc(NC(=O)[C@@H](NC(=O)c2ccnn2C)[C@H]2CC[C@H](C)CC2)nc1 [Example 99, N—((S)-2-((5-(3,5-Dimethyl-1H-pyrazol-4-yl)pyridin-2-yl)amino)-1-((1r,4S)-4-methylcyclohexyl)-2-oxoethyl)-1-methyl-1H-pyrazole-5-carboxamide]",200
2,"Cc1noc(C)c1-c1ccc(NC(=O)[C@@H](NC(=O)c2ccnn2C(C)C)C2CCCCCC2)nc1 [Example 123, (S)—N-(1-Cycloheptyl-2-((5-(3,5-dimethylisoxazol-4-yl)pyridin-2-yl)amino)-2-oxoethyl)-1-isopropyl-1H-pyrazole-5-carboxamide]",39.8
3,"CCn1nccc1C(=O)N[C@H](C(=O)Nc1ccc(-c2c(C)cnn2C)cn1)[C@H]1CC[C@H](C)CC1 [Example 126, N—((S)-2-((5-(1,4-Dimethyl-1H-pyrazol-5-yl)pyridin-2-yl)amino)-1-((1r,4S)-4-methylcyclohexyl)-2-oxoethyl)-1-ethyl-1H-pyrazole-5-carboxamide]",50.1
4,"Cc1nnn(C2CC2)c1-c1ccc(NC(=O)[C@@H](NC(=O)c2ccnn2C)C2CCCCCC2)nc1 [Example 161, (S)—N-(1-cycloheptyl-2-((5-(1-cyclopropyl-4-methyl-1H-1,2,3-triazol-5-yl)pyridin-2-yl)amino)-2-oxoethyl)-1-methyl-1H-pyrazole-5-carboxamide]",200
5,"CCc1nocc1C(=O)N[C@H](C(=O)Nc1ccc(-c2c(C)noc2C)cn1)C1CCCCCC1 [Example 124, (S)—N-(1-Cycloheptyl-2-((5-(3,5-dimethylisoxazol-4-yl)pyridin-2-yl)amino)-2-oxoethyl)-3-ethylisoxazole-4-carboxamide]",39.8
6,"COCc1noc(C)c1-c1ccc(NC(=O)[C@@H](NC(=O)c2ccnn2C)[C@H]2CC[C@H](C)CC2)nc1 [Example 142, N—((S)-2-((5-(3-(methoxymethyl)-5-methylisoxazol-4-yl)pyridin-2-yl)amino)-1-((1r,4S)-4-methylcyclohexyl)-2-oxoethyl)-1-methyl-1H-pyrazole-5-carboxamide]",398
7,"Cc1cnn(C)c1-c1ccc(NC(=O)[C@@H](NC(=O)c2nonc2C)C2CCCCCC2)nc1 [Example 134, (S)—N-(1-Cycloheptyl-2-((5-(1,4-dimethyl-1H-pyrazol-5-yl)pyridin-2-yl)amino)-2-oxoethyl)-4-methyl-1,2,5-oxadiazole-3-carboxamide]",200
8,"Cc1c(-c2ccc(NC(=O)[C@@H](NC(=O)c3ccnn3C)C3CCCCC3)cc2)ccc(=O)n1C [Example 119, (S)—N-(1-Cyclohexyl-2-((4-(1,2-dimethyl-6-oxo-1,6-dihydropyridin-3-yl)phenyl)amino)-2-oxoethyl)-1-methyl-1H-pyrazole-5-carboxamide]",501
9,"Cc1cnn(C)c1-c1ccc(NC(=O)[C@@H](NC(=O)c2ccnn2C)C2CCCCC2)nc1 [Example 177, (S)—N-(1-cyclohexyl-2-((5-(1,4-dimethyl-1H-pyrazol-5-yl)pyridin-2-yl)amino)-2-oxoethyl)-1-methyl-1H-pyrazole-5-carboxamide]",200
10,"Cc1noc(C)c1-c1ccc(NC(=O)[C@@H](NC(=O)c2ccnn2C(C)C)C2CCCCC2)nc1 [Example 108, (S)—N-(1-Cyclohexyl-2-((5-(3,5-dimethylisoxazol-4-yl)pyridin-2-yl)amino)-2-oxoethyl)-1-isopropyl-1H-pyrazole-5-carboxamide]",126
11,"Cn1nncc1C(=O)N[C@H](C(=O)Nc1ccc(-c2c(Cl)cnn2C)cn1)[C@H]1CC[C@H](C)CC1 [Example 200, N—((S)-2-((5-(4-chloro-1-methyl-1H-pyrazol-5-yl)pyridin-2-yl)amino)-1-((1r,4S)-4-methylcyclohexyl)-2-oxoethyl)-1-methyl-1H-1,2,3-triazole-5-carboxamide]",398
12,"Cc1n[nH]c(C)c1-c1ccc(NC(=O)[C@@H](NC(=O)c2cnnn2C)C2CCCCCC2)cn1 [Example 209, (S)—N-(1-cycloheptyl-2-((6-(3,5-dimethyl-1H-pyrazol-4-yl)pyridin-3-yl)amino)-2-oxoethyl)-1-methyl-1H-1,2,3-triazole-5-carboxamide]",794
13,"CCc1nocc1C(=O)N[C@H](C(=O)Nc1ccc(-c2c(C)cnn2C)nc1)[C@H]1CC[C@H](C)CC1 [Example 155, N—((S)-2-((6-(1,4-dimethyl-1H-pyrazol-5-yl)pyridin-3-yl)amino)-1-((1r,4S)-4-methylcyclohexyl)-2-oxoethyl)-3-ethylisoxazole-4-carboxamide]",100
14,"CCn1nccc1C(=O)N[C@H](C(=O)Nc1ccc(-c2c(C)noc2C)cn1)[C@H]1CC[C@H](C)CC1 [Example 109, N—((S)-2-((5-(3,5-Dimethylisoxazol-4-yl)pyridin-2-yl)amino)-1-((1r,4S)-4-methylcyclohexyl)-2-oxoethyl)-1-ethyl-1H-pyrazole-5-carboxamide]",100
15,"Cc1noc(C)c1-c1ccc(NC(=O)[C@@H](NC(=O)c2ccnn2C(C)C)[C@H]2CC[C@H](C)CC2)nc1 [Example 110, N—((S)-2-((5-(3,5-dimethylisoxazol-4-yl)pyridin-2-yl)amino)-1-((1r,4S)-4-methylcyclohexyl)-2-oxoethyl)-1-isopropyl-1H-pyrazole-5-carboxamide]",79.4

# Same assay, conditions: compounds pre-incubated with the IL-17A for 24 h at room temperature; read-out: AlphaLISA pIC50 (converted)
row,SMILES,IC50 [nM]
1,"COc1cnccc1-c1ccc(NC(=O)[C@@H](NC(=O)c2ccnn2C)C(c2ccc(F)cc2)c2ccc(F)cc2)cc1 [Example 19, (S)—N-(1,1-bis(4-fluorophenyl)-3-((4-(3-methoxypyridin-4-yl)phenyl)amino)-3-oxopropan-2-yl)-1-methyl-1H-pyrazole-5-carboxamide]",63.1
2,"Cn1nccc1C(=O)N[C@H](C(=O)Nc1ccc(-c2cn(C)c(=O)c3[nH]ncc23)c(F)c1)C(c1ccccc1)c1ccccc1 [Example 75, (S)—N-(1-((3-fluoro-4-(6-methyl-7-oxo-6,7-dihydro-1H-pyrazolo[3,4-c]pyridin-4-yl)phenyl)amino)-1-oxo-3,3-diphenylpropan-2-yl)-1-methyl-1H-pyrazole-5-carboxamide]",31.6
3,"Cn1nccc1C(=O)N[C@H](C(=O)Nc1ccc(C2=CCOCC2)cc1)[C@H]1CC[C@H](C)CC1 [Example 95, N—((S)-2-((4-(3,6-Dihydro-2H-pyran-4-yl)phenyl)amino)-1-((1r,4S)-4-methylcyclohexyl)-2-oxoethyl)-1-methyl-1H-pyrazole-5-carboxamide]",100
4,"Cn1nccc1C(=O)N[C@H](C(=O)Nc1ccc(-c2cccc3nccn23)cc1)[C@H]1CC[C@H](C)CC1 [Example 88, N—((S)-2-((4-(Imidazo[1,2-a]pyridin-5-yl)phenyl)amino)-1-((1r,4S)-4-methylcyclohexyl)-2-oxoethyl)-1-methyl-1H-pyrazole-5-carboxamide]",398
5,"Cn1nccc1C(=O)N[C@H](C(=O)Nc1ccc(-c2cn[nH]c2)c(F)c1)C(c1ccccc1)c1ccccc1 [Example 62, (S)—N-(1-((3-fluoro-4-(1H-pyrazol-4-yl)phenyl)amino)-1-oxo-3,3-diphenylpropan-2-yl)-1-methyl-1H-pyrazole-5-carboxamide]",794
6,"Cc1cncc(C)c1-c1ccc(NC(=O)[C@@H](NC(=O)c2ccnn2C)[C@H]2CC[C@H](C)CC2)nc1 [Example 90, N—((S)-2-((3′,5′-Dimethyl-[3,4′-bipyridin]-6-yl)amino)-1-((1r,4S)-4-methylcyclohexyl)-2-oxoethyl)-1-methyl-1H-pyrazole-5-carboxamide]",63.1
7,"Cc1c(-c2c(F)cc(NC(=O)[C@@H](NC(=O)c3ccnn3C)C(c3ccccc3)c3ccccc3)cc2F)ccc(=O)n1C [Example 29, (S)—N-(1-((4-(1,2-dimethyl-6-oxo-1,6-dihydropyridin-3-yl)-3,5-difluorophenyl)amino)-1-oxo-3,3-diphenylpropan-2-yl)-1-methyl-1H-pyrazole-5-carboxamide]",20
8,"Cn1nccc1C(=O)N[C@H](C(=O)Nc1ccc(-c2ccncc2F)cc1)C(c1ccccc1)c1ccccc1 [Example 36, (S)—N-(1-((4-(3-fluoropyridin-4-yl)phenyl)amino)-1-oxo-3,3-diphenylpropan-2-yl)-1-methyl-1H-pyrazole-5-carboxamide]",79.4
9,"Cn1nccc1C(=O)N[C@H](C(=O)Nc1ccc(-c2c[nH]c(=O)c3[nH]ccc23)cc1)[C@H]1CC[C@H](C)CC1 [Example 85, 1-Methyl-N—((S)-1-((1r,4S)-4-methylcyclohexyl)-2-oxo-2-((4-(7-oxo-6,7-dihydro-1H-pyrrolo[2,3-c]pyridin-4-yl)phenyl)amino)ethyl)-1H-pyrazole-5-carboxamide]",63.1
10,"CCn1nccc1C(=O)N[C@H](C(=O)Nc1ccc(-c2ccc(=O)[nH]n2)c(F)c1)C(c1ccccc1)c1ccccc1 [Example 34, (S)-1-ethyl-N-(1-((3-fluoro-4-(6-oxo-1,6-dihydropyridazin-3-yl)phenyl)amino)-1-oxo-3,3-diphenylpropan-2-yl)-1H-pyrazole-5-carboxamide]",200
11,"CCn1nccc1C(=O)N[C@H](C(=O)Nc1ccc(-c2c[nH]nc2C)c(F)c1)C(c1ccccc1)c1ccccc1 [Example 59, (S)-1-ethyl-N-(1-((3-fluoro-4-(3-methyl-1H-pyrazol-4-yl)phenyl)amino)-1-oxo-3,3-diphenylpropan-2-yl)-1H-pyrazole-5-carboxamide]",100
12,"Cn1nccc1C(=O)N[C@H](C(=O)Nc1ccc(C2CCOCC2)cc1)[C@H]1CC[C@H](C)CC1 [Example 93, 1-Methyl-N—((S)-1-((1r,4S)-4-methylcyclohexyl)-2-oxo-2-((4-(tetrahydro-2H-pyran-4-yl)phenyl)amino)ethyl)-1H-pyrazole-5-carboxamide]",50.1
